Values quoted from earlier work in patent US9949922B2, “Silica hydrogel composite” (DELSITECH OY, priority 2013, dated 2018).

Conditions: nimodipine value from DrugBank

For `O=C1OC2(c3ccc(O)cc3Oc3cc(O)ccc32)c2ccccc21` [Fluorescein], which Water solubility is on record?
The Water solubility was 800 µg/mL.
